Source: the supplement of paper PMC11061612

How the values were obtained:
Assay in all cases: Bliss excess, mean over the matrix (fraction); higher = more synergy
[1] = test system: CL-11 (Colorectal Carcinoma)
Outline: (§1)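 Cell lines grown in DMEM/F12 or RPMI with 10% FBS were plated in 1536-well plates and held 24 hours at 37°C, 5% CO2 before 72 hours of exposure to two-drug dose matrices, with DMSO typically at 0.2%. CellTiter-Glo 2.0 luminescence gave viability, which was converted to inhibition. Vehicle wells were set to 0 and blank wells to 1. Combination Emax is the second-highest inhibition in the matrix, and Bliss excess is the observed combination effect minus the expected EA + EB − EA·EB, where EA and EB are the single-agent effects.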

[2] = test system: Raji (Burkitt's Lymphoma)
Outline: as §1

[3] = test system: NMC-G1 (Low Grade Glioma)
Outline: as §1

[4] = test system: P30-OHK (B-Lymphoblastic Leukemia)
Outline: as §1

[5] = test system: NCI-H596 (Other Solid Carcinomas)
Outline: as §1

[6] = test system: BHT-101 (Thyroid Gland Carcinoma)
Outline: as §1

[7] = test system: WM35 (Melanoma)
Outline: as §1

[8] = test system: NB1 (Neuroblastoma)
Outline: as §1

[9] = test system: SCC-4 (Oral Cavity Carcinoma)
Outline: as §1

[10] = test system: SNU-C2B (Colorectal Carcinoma)
Outline: as §1

[11] = test system: SK-CO-1 (Colorectal Carcinoma)
Outline: as §1

[12] = test system: GAK (Melanoma)
Outline: as §1

[13] = test system: AM-38 (Glioblastoma)
Outline: as §1

[14] = test system: SKG-IIIa (Cervical Carcinoma)
Outline: as §1

[15] = test system: KP-4 (Pancreatic Carcinoma)
Outline: as §1

[16] = test system: IA-LM (Non-Small Cell Lung Carcinoma)
Outline: as §1

[17] = test system: NAMALWA (Burkitt's Lymphoma)
Outline: as §1

[18] = test system: SK-N-SH (Neuroblastoma)
Outline: as §1

[19] = test system: OAW-28 (Ovarian Carcinoma)
Outline: as §1

[20] = test system: NCI-H1963 (Small Cell Lung Carcinoma)
Outline: as §1

Compound | Bliss excess [1] | Bliss excess [2] | Bliss excess [3] | Bliss excess [4] | Bliss excess [5] | Bliss excess [6] | Bliss excess [7] | Bliss excess [8] | Bliss excess [9] | Bliss excess [10] | Bliss excess [11] | Bliss excess [12] | Bliss excess [13] | Bliss excess [14] | Bliss excess [15] | Bliss excess [16] | Bliss excess [17] | Bliss excess [18] | Bliss excess [19] | Bliss excess [20]
COc1cc2c(cc1OCCCCCOc1cc3c(cc1OC)C(=O)N1C=C(C)C[C@H]1C=N3)N=C[C@@H]1CC(C)=CN1C2=O [SG3199] + O=C(c1cc(Cc2n[nH]c(=O)c3ccccc23)ccc1F)N1CCN(C(=O)C2CC2)CC1 [Olaparib] (first compound max 0.001 µM, 7x7, partner max 10 µM) | -0.016 | 0.0002 | -0.0625 | -0.0422 | -0.0681 | -0.009 | -0.0129 | -0.0418 | -0.0545 | -0.0374 | -0.0444 | -0.0238 | -0.0032 | -0.0391 | -0.0366 | -0.0401 | 0.0018 | -0.0454 | -0.0263 | 0.025
CC1(C)CCC(CN2CCN(c3ccc(C(=O)NS(=O)(=O)c4ccc(NCC5CCOCC5)c([N+](=O)[O-])c4)c(Oc4cnc5[nH]ccc5c4)c3)CC2)=C(c2ccc(Cl)cc2)C1 [Venetoclax] + CCN(CCO)CCCOc1ccc2c(Nc3cc(CC(=O)Nc4cccc(F)c4)[nH]n3)ncnc2c1 [AZD2811] (first compound max 1 µM, 7x7, partner max 1 µM) | -0.0137 | -0.016 | -0.0253 | 0.0653 | -0.0394 | -0.0256 | -0.0397 | -0.0139 | -0.0404 | 0.0098 | 0.0082 | -0.0537 | -0.0506 | 0.0225 | -0.0338 | -0.053 | 0.0894 | 0.0471 | 0.0375 | 0.0196
CN(CCO)CC[C@H](CSc1ccccc1)Nc1ccc(S(=O)(=O)NC(=O)c2ccc(N3CCC([C@@H](O)c4ccccc4-c4ccc(Cl)cc4)CC3)cc2)cc1S(=O)(=O)C(F)(F)F [AZD4320] + CN(C)CCCOc1ccc(-c2ccc3ncc4c(c3c2)n(C2CCOCC2)c(=O)n4C)cn1 [AZD0156] (first compound max 1 µM, 7x7, partner max 1 µM) | -0.0441 | 0.0041 | -0.0362 | 0.0275 | -0.0184 | -0.0193 | -0.0141 | -0.0202 | -0.0341 | -0.0007 | -0.0758 | -0.0381 | 0.112 | -0.0392 | -0.0604 | -0.0239 | 0.0125 | -0.0439 | -0.0218 | 0.0708
CC1(C)CCC(CN2CCN(c3ccc(C(=O)NS(=O)(=O)c4ccc(NCC5CCOCC5)c([N+](=O)[O-])c4)c(Oc4cnc5[nH]ccc5c4)c3)CC2)=C(c2ccc(Cl)cc2)C1 [Venetoclax] + C=CCn1c(=O)c2cnc(Nc3ccc(N4CCN(C)CC4)cc3)nc2n1-c1cccc(C(C)(C)O)n1 [AZD1775] (first compound max 1 µM, partner max 1 µM) | -0.0425 | -0.023 | 0.0064 | 0.207 | -0.0783 | -0.0626 | -0.0447 | -0.0466 | 0.0032 | -0.009 | -0.04 | 0.0074 | -0.0561 | -0.0362 | -0.0385 | -0.0386 | 0.0438 | 0.0526 | -0.009 | 0.123
Cc1cc2ncnn2cc1Nc1ncc2c(n1)n(C1CCOCC1)c(=O)n2C [AZD7648] + C=CCn1c(=O)c2cnc(Nc3ccc(N4CCN(C)CC4)cc3)nc2n1-c1cccc(C(C)(C)O)n1 [AZD1775] (first compound max 10 µM, partner max 1 µM) | 0.0119 | -0.0359 | 0.0106 | 0.0014 | -0.0342 | 0.0005 | -0.0364 | -0.0015 | -0.0714 | -0.0404 | -0.0846 | -0.0275 | 0.0125 | 0.0237 | 0.0217 | -0.0108 | -0.0101 | -0.0069 | -0.0066 | 0.0345
Cc1c2c(nn1C)CSCc1cc(n(C)n1)CSc1cc(c3ccccc3c1)OCCCc1c(C(=O)O)n(C)c3c-2c(Cl)ccc13 [AZD5991] + C[C@@H]1COCCN1C2=NC(=NC(=C2)C3(CC3)[S@](=N)(=O)C)C4=C5C=CNC5=NC=C4 [AZD6738] (first compound max 1 µM, 7x7, partner max 10 µM) | 0.0322 | 0.055 | 0.0188 | 0.0592 | -0.0172 | 0.0666 | 0.0604 | 0.0343 | -0.0003 | -0.0199 | -0.0164 | 0.0034 | 0.0312 | 0.0106 | 0.0389 | 0.0255 | -0.0012 | -0.0225 | 0.0799 | 0.0858
COc1cccc2c1C(=O)c1c(O)c3c(c(O)c1C2=O)C[C@@](O)(C(=O)CO)C[C@@H]3O[C@H]1C[C@H](N)[C@H](O)[C@H](C)O1 [Doxorubicin] + Cc1cc2ncnn2cc1Nc1ncc2c(n1)n(C1CCOCC1)c(=O)n2C [AZD7648] (first compound max 1 µM, 7x7, partner max 10 µM) | 0.0863 | 0.0979 | -0.0029 | 0.129 | -0.006 | 0.0409 | 0.0285 | 0.0581 | 0.0176 | 0.0518 | -0.0163 | 0.0711 | 0.114 | 0.0086 | 0.0583 | 0.0044 | 0.0765 | 0.0605 | 0.0209 | 0.1
CC1(C)CCC(CN2CCN(c3ccc(C(=O)NS(=O)(=O)c4ccc(NCC5CCOCC5)c([N+](=O)[O-])c4)c(Oc4cnc5[nH]ccc5c4)c3)CC2)=C(c2ccc(Cl)cc2)C1 [Venetoclax] + C[C@@H]1COCCN1C2=NC(=NC(=C2)C3(CC3)[S@](=N)(=O)C)C4=C5C=CNC5=NC=C4 [AZD6738] (first compound max 1 µM, 7x7, partner max 10 µM) | -0.0395 | 0.0091 | -0.0032 | 0.154 | -0.0571 | -0.0888 | 0.023 | -0.0444 | -0.134 | -0.0102 | -0.103 | -0.0586 | 0.0223 | -0.021 | -0.0282 | -0.01 | -0.0029 | -0.0671 | -0.0216 | 0.0004
CN(CCO)CC[C@H](CSc1ccccc1)Nc1ccc(S(=O)(=O)NC(=O)c2ccc(N3CCC([C@@H](O)c4ccccc4-c4ccc(Cl)cc4)CC3)cc2)cc1S(=O)(=O)C(F)(F)F [AZD4320] + CCN(CCO)CCCOc1ccc2c(Nc3cc(CC(=O)Nc4cccc(F)c4)[nH]n3)ncnc2c1 [AZD2811] (first compound max 1 µM, 7x7, partner max 1 µM) | -0.0391 | 0.0111 | 0.0047 | 0.045 | -0.0631 | -0.0112 | -0.0084 | 0.0994 | 0.0936 | -0.0031 | 0.0178 | -0.0032 | 0.0616 | -0.015 | -0.021 | 0.0119 | 0.0873 | -0.143 | 0.0773 | 0.0054
COc1cccc(OCCCN)c1-c1cc(Nc2cnc(C#N)cn2)n[nH]1 [Prexasertib] + O=C(c1cc(Cc2n[nH]c(=O)c3ccccc23)ccc1F)N1CCN(C(=O)C2CC2)CC1 [Olaparib] (first compound max 1 µM, 7x7, partner max 10 µM) | -0.0583 | 0.0082 | -0.0325 | -0.0074 | 0.0098 | -0.0528 | -0.0377 | -0.0411 | -0.109 | -0.0414 | -0.0442 | -0.0159 | 0.0359 | -0.0274 | 0.0261 | -0.0456 | -0.044 | -0.0217 | -0.0348 | -0.0327
CN(C)CCCOc1ccc(-c2ccc3ncc4c(c3c2)n(C2CCOCC2)c(=O)n4C)cn1 [AZD0156] + C[C@@H]1COCCN1C2=NC(=NC(=C2)C3(CC3)[S@](=N)(=O)C)C4=C5C=CNC5=NC=C4 [AZD6738] (first compound max 1 µM, 7x7, partner max 10 µM) | -0.0265 | 0.0164 | -0.0603 | 0.0152 | -0.009 | 0.0222 | 0.0618 | 0.0522 | -0.0071 | 0.0183 | -0.0865 | 0.0448 | 0.0677 | -0.0555 | -0.0286 | -0.0241 | 0.0342 | -0.115 | -0.0279 | 0.0086
Cc1c2c(nn1C)CSCc1cc(n(C)n1)CSc1cc(c3ccccc3c1)OCCCc1c(C(=O)O)n(C)c3c-2c(Cl)ccc13 [AZD5991] + C1CN(CCC1(C(=O)N[C@@H](CCO)C2=CC=C(C=C2)Cl)N)C3=NC=NC4=C3C=CN4 [Capivasertib] (first compound max 1 µM, 7x7, partner max 3 µM) | -0.0234 | 0.0312 | -0.0172 | 0.0273 | -0.0035 | 0.0332 | -0.0183 | -0.0186 | 0.0358 | -0.0161 | -0.0119 | -0.029 | 0.0026 | -0.0231 | -0.005 | -0.021 | 0.0008 | 0.011 | 0.045 | 0.0377
CN(CCO)CC[C@H](CSc1ccccc1)Nc1ccc(S(=O)(=O)NC(=O)c2ccc(N3CCC([C@@H](O)c4ccccc4-c4ccc(Cl)cc4)CC3)cc2)cc1S(=O)(=O)C(F)(F)F [AZD4320] + Cn1cnc2c(F)c(Nc3ccc(Br)cc3Cl)c(C(=O)NOCCO)cc21 [Selumetinib] (first compound max 1 µM, 7x7, partner max 3 µM) | 0.0489 | 0.0188 | -0.0624 | 0.0291 | -0.0441 | 0.0147 | 0.154 | 0.0308 | 0.054 | 0.0528 | 0.0154 | 0.0028 | 0.0746 | 0.0044 | -0.0025 | 0.0652 | 0.0105 | 0.0457 | 0.0927 | 0.0204
C[C@@H]1COCCN1c1cc(C2([S@](C)(=N)=O)CC2)nc(-c2ccnc3[nH]ccc23)n1 [AZD6738] + O=C(c1cc(Cc2n[nH]c(=O)c3ccccc23)ccc1F)N1CCN(C(=O)C2CC2)CC1 [Olaparib] (first compound max 10 µM, 7x7, partner max 10 µM) | 0.0013 | -0.0204 | 0.0071 | 0.0469 | -0.0841 | 0.016 | 0.0084 | -0.058 | 0.059 | 0.0123 | 0.013 | 0.0019 | 0.0226 | 0.0236 | 0.113 | 0.0137 | -0.0187 | -0.0667 | -0.0159 | 0.0725
